Reference: patent US9447100B2, “Substituted pyrazolo[1,5-A] pyrimidines as calcium receptor modulating agents” (Takeda Pharmaceutical Company Limited, priority 2002, dated 2016)
Structures can show the parent of a compound that is named as a salt.

| SMILES | melting point [°C] |
| --- | --- |
| CCC(CC)(NC(=O)c1cnn2c1NC(c1ccccc1)CC2(C)C)c1ccc(Br)cc1 (stereo not drawn) [Example 413, N-(1-(4-bromophenyl)-1-ethylpropyl)-7,7-dimethyl-5-phenyl-4,5,6,7-tetrahydropyrazolo[1,5-a]pyrimidine-3-carboxamide] | 129 to 130 |
| CCC(CC)(NC(=O)c1cnn2c1NC(c1ccccc1)CC2(C)C)c1ccc(F)c(F)c1 (stereo not drawn) [Example 589, N-(1-(3,4-difluorophenyl)-1-ethylpropyl)-7,7-dimethyl-5-phenyl-4,5,6,7-tetrahydropyrazolo[1,5-a]pyrimidine-3-carboxamide] | 171 to 172 |
| CCC(CC)(NC(=O)c1cnn2c1NC(c1ccccc1)CC2(C)C)c1ccc(CCC(=O)OC(C)C)cc1 (stereo not drawn) (as salt: HCl) [Example 816, isopropyl 3-(4-(1-(((7,7-dimethyl-5-phenyl-4,5,6,7-tetrahydropyrazolo[1,5-a]pyrimidin-3-yl)carbonyl)amino)-1-ethyl-propyl)phenyl)propanoate] | 150 to 151 |
| CCC(CC)(NC(=O)c1c(C)nn2c1NC(c1cccs1)CC2(C)C)c1ccc(C)cc1 (stereo not drawn) (as salt: HCl) [Example 956, N-(1-ethyl-1-(4-methylphenyl)propyl)-2,7,7-trimethyl-5-(2-thienyl)-4,5,6,7-tetrahydropyrazolo[1,5-a]pyrimidine-3-carboxamide] | 149 to 150 |
| CCC(CC)(c1ccccc1)c1nnc(-c2c(C)nn3c2N[C@@H](c2ccccc2)CC3(C)C)s1 [Example 1145, (5R)-3-(5-(1-ethyl-1-phenylpropyl)-1,3,4-thiadiazol-2-yl)-2,7,7-trimethyl-5-phenyl-4,5,6,7-tetrahydropyrazolo[1,5-a]pyrimidine] | 174 to 175 |
| CCC1(CC)C[C@@H](O)CN1C(=O)c1c(C)nn2c1N[C@@H](c1ccccc1)CC2(C)C [Example 1097, (3R)-5,5-diethyl-1-(((5R)-2,7,7-trimethyl-5-phenyl-4,5,6,7-tetrahydropyrazolo[1,5-a]pyrimidin-3-yl)carbonyl)-3-pyrrolidinol] | 162 to 164 |
| CCC(CC)(NC(=O)c1cnn2c1NC(c1ccco1)CC2(C)C)c1ccc(C(F)(F)F)cc1 (stereo not drawn) [Example 693, N-(1-ethyl-1-(4-(trifluoro-methyl)phenyl)propyl)-5-(2-furyl)-7,7-dimethyl-4,5,6,7-tetrahydropyrazolo[1,5-a]pyrimidine-3-carboxamide] | 212 to 214 |
| CCC1(CC)CC(c2ccccc2)Nc2c(C(=O)NC34CC5CC(CC(C5)C3)C4)cnn21 (stereo not drawn) | 213 to 214 |
| CCC(CC)(NC(=O)c1cnn2c1NC(c1ccccc1OC)CC2(C)C)c1ccc(F)cc1 (stereo not drawn) [Example 600, N-(1-ethyl-1-(4-fluorophenyl)propyl)-5-(2-methoxyphenyl)-7,7-dimethyl-4,5,6,7-tetrahydropyrazolo[1,5-a]pyrimidine-3-carboxamide] | 206.2 to 206.3 |
| CCC(CC)(NC(=O)c1cnn2c1NC(C1CCCCC1)CC2(C)C)c1ccc(C(F)(F)F)cc1 (stereo not drawn) [Example 676, 5-cyclohexyl-N-(1-ethyl-1-(4-(trifluoromethyl)phenyl)propyl)-7,7-dimethyl-4,5,6,7-tetrahydropyrazolo[1,5-a]pyrimidine-3-carboxamide] | 178.7 to 178.9 |
| CCC(CC)(NC(=O)c1c(C)nn2c1NC(c1ccc(C)cc1)CC2(C)C)c1ccc(C)cc1 (stereo not drawn) (as salt: HCl) [Example 973, N-(1-ethyl-1-(4-methylphenyl)propyl)-2,7,7-trimethyl-5-(4-methylphenyl)-4,5,6,7-tetrahydropyrazolo[1,5-a]pyrimidine-3-carboxamide] | 152 to 154 |
| CCC(CC)(NC(=O)c1cnn2c1NC(c1ccc(OC)cc1)CC2(C)C)c1ccc(C)cc1 (stereo not drawn) (as salt: HCl) [Example 960, N-[1-ethyl-1-(4-methylphenyl)propyl]-5-(4-methoxyphenyl)-7,7-dimethyl-4,5,6,7-tetrahydropyrazolo[1,5-a]pyrimidine-3-carboxamide] | 188 to 189 |
| CCC(CC)(NC(=O)c1cnn2c1NC(c1ncc(C)s1)CC2(C)C)c1ccc(F)cc1 (stereo not drawn) [Example 602, N-(1-ethyl-1-(4-fluorophenyl)propyl)-7,7-dimethyl-5-(5-methyl-1,3-thiazol-2-yl)-4,5,6,7-tetrahydropyrazolo[1,5-a]pyrimidine-3-carboxamide] | 163.5 to 163.6 |
| O=C(NC1(C(=O)O)CCCCC1)c1cnn2c1N[C@H](c1ccccc1)C[C@@H]2C(F)(F)F (stereo in doubt) [Example 369, 1-(((5-phenyl-7-(trifluoromethyl)-4,5,6,7-tetrahydropyrazolo[1,5-a]pyrimidin-3-yl)carbonyl)amino)cyclohexane carboxylic acid] | 236 to 237 |
| CCC(CC)(NC(=O)c1c(C)nn2c1NC(c1ccccc1F)CC2(C)C)c1ccc(N(C)C)cc1 (stereo not drawn) (as salt: HCl) [Example 969, N-(1-(4-(dimethylamino)phenyl)-1-ethylpropyl)-5-(2-fluorophenyl)-2,7,7-trimethyl-4,5,6,7-tetrahydropyrazolo[1,5-a]pyrimidine-3-carboxamide] | 152 to 153 |
| COc1cccc(C2CC(C(F)(F)F)n3ncc(C(=O)NC45CC6CC(CC(C6)C4)C5)c3N2)c1 (stereo not drawn) [Example 280, N-(1-adamantyl)-5-(3-methoxyphenyl)-7-(trifluoromethyl)-4,5,6,7-tetrahydropyrazolo[1,5-a]pyrimidine-3-carboxamide] | 211 to 212 |
| CC(NC(=O)c1cnn2c1N[C@H](c1ccccc1)C[C@@H]2C(F)(F)F)C(=O)c1ccccc1 (stereo in doubt) [Example 290, N-(1-methyl-2-oxo-2-phenylethyl)-5-phenyl-7-(trifluoromethyl)-4,5,6,7-tetrahydropyrazolo[1,5-a]pyrimidine-3-carboxamide] | 271 to 272 |
| CCC1(CC)C[C@@H](O)CN1C(=O)c1cnn2c1N[C@@H](c1ccccc1)CC2(C)C [Example 1115, (3R)-1-(((5R)-7,7-dimethyl-5-phenyl-4,5,6,7-tetrahydropyrazolo[1,5-a]pyrimidin-3-yl)carbonyl)-5,5-diethyl-3-pyrrolidinol] | 250 to 252 |
| CCC(CC)(NC(=O)c1c(C)nn2c1NC(c1ccccc1F)CC2(C)C)c1ccc(C)cc1 (stereo not drawn) (as salt: HCl) [Example 831, N-(1-ethyl-1-(4-methylphenyl)propyl)-5-(2-fluorophenyl)-2,7,7-trimethyl-4,5,6,7-tetrahydropyrazolo[1,5-a]pyrimidine-3-carboxamide] | 152 to 153 |
| CCC1(CC)C[C@H](OCc2ccccc2)CN1C(=O)c1cnn2c1N[C@@H](c1ccccc1)CC2(C)C [Example 1107, (5R)-3-(((4S)-4-(benzyloxy)-2,2-diethy-1-pyrrolidinyl)carbonyl)-7,7-dimethyl-5-phenyl-4,5,6,7-tetrahydropyrazolo[1,5-a]pyrimidine] | 173 to 175 |
| CCC1(CC)C[C@@H](OCc2ccccc2)CN1C(=O)c1cnn2c1N[C@@H](c1ccccc1)CC2(C)C [Example 1103, (5R)-3-(((4R)-4-(benzyloxy)-2,2-diethyl-1-pyrrolidinyl)carbonyl)-7,7-dimethyl-5-phenyl-4,5,6,7-tetrahydropyrazolo[1,5-a]pyrimidine] | 118 to 120 |
| O=C(NC12CC3CC(CC(C3)C1)C2)c1cnn2c1NC(c1ccccc1)CC21CCCC1 (stereo not drawn) [Example 183, N-(1-adamantyl)-5′-phenyl-5′,6′-dihydro-4′H-spiro[cyclopentane-1,7′-pyrazolo[1,5-a]pyrimidine]-3′-carboxamide] | 259 to 261 |
| CCc1ccc(C(CC)(CC)NC(=O)c2cnn3c2NC(c2ccccc2)CC3(C)C)cc1 (stereo not drawn) [Example 647, N-(1-ethyl-1-(4-ethylphenyl)propyl)-7,7-dimethyl-5-phenyl-4,5,6,7-tetrahydropyrazolo[1,5-a]pyrimidine-3-carboxamide] | 156 to 157 |
| CC1(C)CC(c2ccccc2)Nc2c(C(=O)N(Cc3ccc(C(F)(F)F)cc3)Cc3ccc(C(F)(F)F)cc3)cnn21 (stereo not drawn) [Example 409, 7,7-dimethyl-5-phenyl-N,N-bis(4-(trifluoromethyl)benzyl)-4,5,6,7-tetrahydropyrazolo[1,5-a]pyrimidine-3-carboxamide] | 164 to 165 |
| CCC(CC)(CCSC)NC(=O)c1cnn2c1NC(c1ccccc1)CC2(C)C (stereo not drawn) [Example 665, N-(1,1-diethyl-3-(methylthio)propyl)-7,7-dimethyl-5-phenyl-4,5,6,7-tetrahydropyrazolo[1,5-a]pyrimidine-3-carboxamide] | 154 to 155 |
| CCC(CC)(NC(=O)c1c(C)nn2c1NC(c1ccccc1)CC2(C)C)c1ccc(Br)cc1 (stereo not drawn) (as salt: HCl) [Example 738, N-(1-(4-bromophenyl)-1-ethylpropyl)-2,7,7-trimethyl-5-phenyl-4,5,6,7-tetrahydropyrazolo[1,5-a]pyrimidine-3-carboxamide] | 185 to 187 |
| COc1ccc(C2CC(C)(C)n3nc(C)c(C(=O)O)c3N2)cc1 (stereo not drawn) [Example 950, 5-(4-methoxyphenyl)-2,7,7-trimethyl-4,5,6,7-tetrahydropyrazolo[1,5-a]pyrimidine-3-carboxylic acid] | 178 to 179 |
| CC1(C)CC(c2ccccc2)Nc2c(C(=O)NC(c3ccc(Cl)cc3)c3ccc(Cl)cc3)cnn21 (stereo not drawn) [Example 405, N-(bis(4-chlorophenyl)methyl)-7,7-dimethyl-5-phenyl-4,5,6,7-tetrahydropyrazolo[1,5-a]pyrimidine-3-carboxamide] | 180 to 181 |
| CCC(CC)(NC(=O)c1cnn2c1NC(c1ccc(F)cc1F)CC2(C)C)c1ccc(C(F)(F)F)cc1 (stereo not drawn) [Example 694, 5-(2,4-difluorophenyl)-N-(1-ethyl-1-(4-(trifluoro-methyl)phenyl)propyl)-7,7-dimethyl-4,5,6,7-tetrahydropyrazolo[1,5-a]pyrimidine-3-carboxamide] | 198 to 199 |
| CCC(CC)(CCC(F)(F)F)NC(=O)c1cnn2c1NC(c1ccccc1)CC2(C)C (stereo not drawn) [Example 698, N-(1,1-diethyl-4,4,4-trifluorobutyl)-7,7-dimethyl-5-phenyl-4,5,6,7-tetrahydropyrazolo[1,5-a]pyrimidine-3-carboxamide] | 84 to 85 |
